Measurements: PMC5569891 (Chembiochem : a European journal of chemical biology, 2017)

Target: T1, HsSQS (Homo sapiens, UniProt P37268)
T1 sequence (P37268 1-417): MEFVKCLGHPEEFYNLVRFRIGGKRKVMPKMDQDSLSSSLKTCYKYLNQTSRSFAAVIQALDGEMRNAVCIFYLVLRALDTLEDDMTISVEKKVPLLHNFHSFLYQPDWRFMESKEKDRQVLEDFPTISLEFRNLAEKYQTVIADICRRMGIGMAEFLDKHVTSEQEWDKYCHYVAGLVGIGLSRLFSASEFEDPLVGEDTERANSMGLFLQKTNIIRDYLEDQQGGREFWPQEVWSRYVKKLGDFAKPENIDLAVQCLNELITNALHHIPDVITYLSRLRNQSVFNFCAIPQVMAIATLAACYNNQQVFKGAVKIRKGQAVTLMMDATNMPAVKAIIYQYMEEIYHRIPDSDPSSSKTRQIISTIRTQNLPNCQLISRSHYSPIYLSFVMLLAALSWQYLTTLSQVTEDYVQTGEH
Test: LC-MS of products
Assay type: biochemical
Conditions: no NADPH

CC(C)=CCC/C(C)=C/CC/C(C)=C/COP(=O)(O)OP(=O)(O)O [compound 1, farnesyl diphosphate]
LC-MS of products (PSPP): LC-MS traces showing reaction products of NmHpnD+FPP (in blue) and HsSQS+FPP (in red)
